This is an account of results in patent US6987017B2, “Methods for producing L-isoleucine” (Massachusetts Institute of Technology, priority 1999, dated 2006).

As usually defined, the remaining activity is the activity still measured, relative to the control. As usually defined, the inhibition is the drop in the measured response relative to a control, in per cent. A lower inhibition goes with little suppression.

The test system of assay [1] is C. glutamicum ATCC 21799 pAPE7 tdcB. In kind it is cell-based, Corynebacterium glutamicum. The conditions noted are these: defined medium with supplement (casamino acids 2 g·l^−1, amino acids 0.5 g·l^−1 each), 150 mg/l IPTG, flasks. The method, then:
Defined medium for Corynebacterium glutamicum contained the following ingredients (per liter): glucose, 35 g; NaCl, 2 g; citrate (trisodium salt, dihydrate), 3 g; CaCl2.2H2O, 0.1 g; MgSO4.7H2O, 0.5 g; Na2EDTA.2H2O, 75 mg; FeSO4.7H2O, 50 mg; 100× salt solution, 20 ml; K2HPO4, 4 g; KH2PO4, 2 g; (NH4)2SO4, 7.5 g; urea, 3.75 g; leucine 0.85 g; thiamine, 0.45 mg; biotin, 0.45 mg; pantothenic acid, 4.5 mg (pH 7.0). The salt solution contained the following ingredients (per liter): MnSO4, 200 mg; Na2B4O7.10H2O, 20 mg; (NH4)6Mo7O24.4H2O, 10 mg; FeCl3.6H2O, 200 mg; ZnSO4.7H2O, 50 mg; CuCl2.2H2O, 20 mg (pH 2.0). When appropriate, kanamycin (150 mg/liter) and isopropyl-β-D-thiogalactopyranoside (IPTG) (150 mg/l) was used.
For the growth study with amino acid supplements, the defined medium was complemented with Bacto® casamino acids (Difco, Detroit, Mich.) at a concentration of 2 g·l^−1 or with amino acid (alanine, glycine, methionine or valine) at a concentration of 0.5 g·l^−1 each.
Valine and methionine were chosen to test due to their direct connection with the isoleucine pathway, and alanine and glycine for their indirect connection through the use of pyruvate, which is also a substrate for the isoleucine pathway.

The test system of assay [2] is C. glutamicum ATCC 21799 harboring pAPE13. Description: IPTG induction of threonine dehydratase in batch fermentation of ATCC 21799 (pAPE13). In kind it is cell-based, Corynebacterium glutamicum. The conditions noted are these: IPTG 150 mg/l added at 1.5 g cell dry weight·l^−1. How it is done: (§1) For determination of threonine dehydratase activity, the assay mixture contained 40 mM threonine, 1 mM pyridoxal phosphate, crude extract and 100 mM potassium phosphate buffer, pH 8.0 in a final volume of 1 ml. The reaction was started with the addition of threonine and terminated by the addition of 1 ml solution containing 1% semicarbazide and 0.9% sodium acetate. After a 15 min incubation at room temperature, the amount of alpha-ketobutyrate formed at various intervals was measured spectrophotometrically as its semicarbazone derivative at 254 nm (=0.52 mmol·cm^−1). Relevant standards and controls were carried out in the same manner. For specific determination of catabolic threonine dehydratase activity, the assay mixture contained 20 mM isoleucine in order to inhibit the anabolic threonine dehydratase.
(§2) In FIGS. 3-6, the results of the enzymatic assays are expressed in terms of relative expression of threonine dehydratase compared to wild type expression as the ratio between the specific activity of the enzyme of a strain and the specific activity of the wild type. Each assay was replicated five times, and the results were reproducible within 15%.
(§3) Starter cultures of Corynebacterium glutamicum were prepared by transferring one colony from LB agar plates to 5 ml of LB medium. These cultures were incubated for two days at 30° C. and 200 rpm. […]

Assay [3] deals with C. glutamicum ATCC 21799 harboring pAPE7. The experiment in a line: IPTG induction of catabolic threonine dehydratase in batch fermentation of ATCC 21799 (pAPE7). Conditions: IPTG 150 mg/l. It counts as cell-based, Corynebacterium glutamicum. How it is done: as §1, §2, §3
Another assay relates to C. glutamicum ATCC 21799. The experiment in a line: IPTG addition in batch fermentation of wild type ATCC 21799. In kind it is cell-based, Corynebacterium glutamicum. The conditions noted are these: wild type culture, IPTG 150 mg/l. The method, then:
as §1
In FIGS. 3-6, the results of the enzymatic assays are expressed in terms of relative expression of threonine dehydratase compared to wild type expression as the ratio between the specific activity of the enzyme of a strain and the specific activity of the wild type. […]
C. glutamicum ATCC 21799 was grown twice in defined medium in a 4-liter reactor. […] A concentration of isoleucine of 50 mg·l^−1 was detected at the end of both cultures. Oxygenation of the cultures being sufficient, neither lactate nor acetate was detected during the fermentation.

For another assay, the system named is AHAS. The conditions noted are these: Eggeling et al. 1987; cited from earlier work.
The target of assay [4] is mutated threonine dehydratase V323A (Corynebacterium glutamicum, UniProt Q04513, V323A). The conditions noted are these: 50 mM isoleucine; Morbach et al. 1995; cited from earlier work.
The target in a further assay is T1, tdcB gene product (Escherichia coli, UniProt P0AGF6).
T1 construct: tdcB and ilvA coding regions were amplified by the Polymerase Chain Reaction (PCR); expressed in transfected cells; host or cells: E. coli AB1255 carrying pAPE5 (pTrc99a-based, trc:tdcB); cell-free crude extract
Description: Threonine dehydratase activity of E. coli AB1255 (pAPE5) crude extracts in the presence of isoleucine. It counts as biochemical. Conditions: isoleucine up to 47 mM; consistent activity. The method, then:
(§4) Enzyme assays were performed with cell free crude extracts, prepared by the following method. Cells were harvested by centrifugation for 10 min at 5000×g at 4° C. and washed with 10 ml of the enzyme assay buffer (100 mM Tris-HCl, pH 7.5, containing 20 mM KCl, 5 mM MnSO4, 0.1 mM EDTA, and 2 mM dithiothreitol) (Jetten, M. S. M., et al., Appl. Microbiol. Biotechnol. 41:47-52 (1994)). The cell pellet was resuspended in the same buffer containing a protease inhibitor cocktail (Boehringer Mannheim, Germany) so that the final concentration was 20 g dry cell weight·l^−1. Resuspended cells were disrupted with a glass bead mixer (5100 Mixer-Mill, SPEX, Metuchen, N.J.). […] Protein concentrations were determined by the method of Bradford (Bradford, M. M., Anal. Biochem. 72:248-254 (1976)) with the Bio-Rad (Hercules, Calif.) protein assay kit using bovine serum albumin as a standard.
(§5) For determination of threonine dehydratase activity, the assay mixture contained 40 mM threonine, 1 mM pyridoxal phosphate, crude extract and 100 mM potassium phosphate buffer, pH 8.0 in a final volume of 1 ml. […] After a 15 min incubation at room temperature, the amount of alpha-ketobutyrate formed at various intervals was measured spectrophotometrically as its semicarbazone derivative at 254 nm (=0.52 mmol·cm^−1). […]

The target of assay [5] is T2, Anabolic threonine dehydratase (Corynebacterium glutamicum, UniProt Q04513).
T2 construct: endogenous in cells; host or cells: Corynebacterium glutamicum ATCC 21799; cell-free crude extract
Description: Isoleucine sensitivity of anabolic (native) threonine dehydratase in crude extracts of C. glutamicum ATCC21799. Conditions: ATCC 21799 crude extract. In kind it is biochemical. The method, then:
as §4, §5

Assay [6] deals with T3, catabolic threonine dehydratase (Escherichia coli, UniProt P0AGF6).
T3 construct: tdcB and ilvA coding regions were amplified by the Polymerase Chain Reaction (PCR); expressed in transfected cells; host or cells: Corynebacterium glutamicum ATCC 21799 carrying pAPE7 (trc:tdcB); cell-free crude extract
The experiment in a line: Isoleucine sensitivity of catabolic threonine dehydratase (tdcB) in crude extracts of C. glutamicum ATCC 21799 (pAPE7). It counts as biochemical, E. coli. The method, then: Enzyme assays were performed with cell free crude extracts, prepared by the following method. Cells were harvested by centrifugation for 10 min at 5000×g at 4° C. and washed with 10 ml of the enzyme assay buffer (100 mM Tris-HCl, pH 7.5, containing 20 mM KCl, 5 mM MnSO4, 0.1 mM EDTA, and 2 mM dithiothreitol) (Jetten, M. S. M., et al., Appl. Microbiol. Biotechnol. 41:47-52 (1994)). The cell pellet was resuspended in the same buffer containing a protease inhibitor cocktail (Boehringer Mannheim, Germany) so that the final concentration was 20 g dry cell weight·l^−1. Resuspended cells were disrupted with a glass bead mixer (5100 Mixer-Mill, SPEX, Metuchen, N.J.). 2.5 ml of bacterial suspension was poured in a frozen steel vial containing 5 g of cold 106 μm-diameter glass beads (Sigma) and one stainless steel ball bearing. The vials containing bacterial suspension and glass beads were vigorously shaken at 4° C. using the mixer by 10 cycles of 30 sec shaking separated by rest cycles of one minute. Cell debris were removed by centrifugation for 20 min at 47000×g at 4° C. The supernatant (crude extract) was then tested for enzyme activity. Protein concentrations were determined by the method of Bradford (Bradford, M. M., Anal. Biochem. 72:248-254 (1976)) with the Bio-Rad (Hercules, Calif.) protein assay kit using bovine serum albumin as a standard.
as §5
In order to confirm the insensitivity to isoleucine of catabolic dehydratase expressed in a lysine producing strain of C. glutamicum, threonine dehydratase activities were measured in crude extracts of strains ATCC21799 and ATCC21799 carrying pAPE7 at different concentrations of isoleucine (FIG. 3). […]

In assay [7] the target is T4, endogenous threonine dehydratase (encoded by ilvA) (Corynebacterium glutamicum, UniProt Q04513).
T4 construct: host or cells: Corynebacterium glutamicum MH20-22B
T4 sequence (Q04513 1-436): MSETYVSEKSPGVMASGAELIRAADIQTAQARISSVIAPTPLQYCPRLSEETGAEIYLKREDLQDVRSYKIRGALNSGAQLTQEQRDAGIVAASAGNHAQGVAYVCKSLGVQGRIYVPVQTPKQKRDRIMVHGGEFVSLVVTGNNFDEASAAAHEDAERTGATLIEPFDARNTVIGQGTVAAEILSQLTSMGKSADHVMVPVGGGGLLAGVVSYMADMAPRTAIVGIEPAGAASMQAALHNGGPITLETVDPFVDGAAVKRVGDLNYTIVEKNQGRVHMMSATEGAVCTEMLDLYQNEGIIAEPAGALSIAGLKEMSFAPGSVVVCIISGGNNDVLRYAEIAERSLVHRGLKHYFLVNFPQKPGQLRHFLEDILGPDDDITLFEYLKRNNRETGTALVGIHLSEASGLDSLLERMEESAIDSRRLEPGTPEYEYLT
Conditions: C. glutamicum MH20-22B; Morbach et al. 1995; cited from earlier work.

T3 sequence (P0AGF6 whole entry): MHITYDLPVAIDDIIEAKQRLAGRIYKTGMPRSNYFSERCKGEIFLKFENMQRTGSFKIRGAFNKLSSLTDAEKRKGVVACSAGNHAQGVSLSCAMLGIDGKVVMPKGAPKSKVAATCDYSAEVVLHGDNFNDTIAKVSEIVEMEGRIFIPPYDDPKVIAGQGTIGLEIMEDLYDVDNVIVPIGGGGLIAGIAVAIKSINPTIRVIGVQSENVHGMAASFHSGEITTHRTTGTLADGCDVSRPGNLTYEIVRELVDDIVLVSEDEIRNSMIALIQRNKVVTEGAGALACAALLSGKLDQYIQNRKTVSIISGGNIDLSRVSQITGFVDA
T1 sequence (P0AGF6 whole entry): as above
Chain of mutated threonine dehydratase V323A (Q04513 whole entry V323A): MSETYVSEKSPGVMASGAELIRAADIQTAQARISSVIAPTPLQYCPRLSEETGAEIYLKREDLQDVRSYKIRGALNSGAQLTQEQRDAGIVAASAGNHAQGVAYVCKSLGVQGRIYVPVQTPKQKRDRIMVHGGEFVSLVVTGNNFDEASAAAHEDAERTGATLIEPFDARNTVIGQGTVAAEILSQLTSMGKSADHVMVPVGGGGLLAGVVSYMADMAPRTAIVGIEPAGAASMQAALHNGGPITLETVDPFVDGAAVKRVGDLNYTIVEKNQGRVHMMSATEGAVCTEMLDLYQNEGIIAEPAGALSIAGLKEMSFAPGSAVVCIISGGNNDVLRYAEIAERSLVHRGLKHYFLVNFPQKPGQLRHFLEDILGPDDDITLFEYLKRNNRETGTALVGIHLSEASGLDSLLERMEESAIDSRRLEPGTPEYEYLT

The compound `C[C@H](N)C(=O)O` [Alanine, alanine] showed a Specific growth rate in assay [1] of 0.17 h⁻¹.

`NCC(=O)O` [Glycine, glycine] showed a Specific growth rate in assay [1] of 0.17 h⁻¹.

With `CC(C)S[C@@H]1O[C@H](CO)[C@H](O)[C@H](O)[C@H]1O` [IPTG, isopropyl-β-D-thiogalactopyranoside], the “increase in the level of threonine dehydratase after addition of IPTG” value in assay [2] stood at 20 fold. Besides, the “catabolic threonine dehydratase concentration relative to original enzyme after addition of IPTG” value in [3] was 15 fold. In the assay on C. glutamicum ATCC 21799, the “effect of IPTG addition on threonine dehydratase” value is listed as “did not lead to an increase”.

Regarding `CSCC[C@H](N)C(=O)O` [Methionine, methionine], in [1], the Specific growth rate stood at 0.26 h⁻¹.

The compound `CC(C)[C@H](N)C(=O)O` [Valine, valine] yielded a Specific growth rate in assay [1] of 0.24 h⁻¹.

For the compound `CCC(=O)C(=O)O` [alpha-ketobutyrate], the “affinity of AHAS for alpha-ketobutyrate relative to pyruvate” value with AHAS was 3 fold.

In the case of `CC[C@H](C)[C@H](N)C(=O)O` [isoleucine], the “remaining activity of mutated threonine dehydratase V323A” value in [4] is listed as 22%. In addition, at tdcB gene product, the “threonine dehydratase activity of AB1255 (pAPE5) extracts in the presence of isoleucine” value was “about 80 μmol product·min^−1·mg protein^−1”. The “isoleucine concentration that totally inhibits the native (anabolic) threonine dehydratase” value in assay [5] was 15 mM. Moreover, the remaining activity at 50000 µM in [6] (50 mM isoleucine, read-out: remaining activity of catabolic threonine dehydratase of E. coli) lay within 70 to 80%. In [6] (200 mM isoleucine), the inhibition at 200000 µM stood at 40% and the “retained original activity of catabolic threonine dehydratase” value worked out at 60%. The “isoleucine concentration giving complete inhibition of the endogenous threonine dehydratase” value in assay [7] was 5 mM.
